The source of these data is ChEMBL document CHEMBL1125521, “Oxygen isosteric derivatives of 3-(3-hydroxyphenyl)-N-n-propylpiperidine” (J Med Chem, 1992).

Test [1] deals with Serotonin 1 (5-HT1) receptor (Rattus norvegicus, UniProt P28564+P30940+P19327+P28565). In words: Compound was evaluated for the inhibition of [3H]5-HT (concentration of 12 nM) specific binding to rat hippocampus. It counts as tissue-based.
The target of test [2] is D(2) dopamine receptor (Rattus norvegicus) (UniProt P61169). In words: Displacement of [3H]spiroperidol from dopamine receptor D2 binding sites of rat striatal membranes; inactive. It counts as cell membranes. To be noted: Membrane. A general note: Displacement assays read how much labelled ligand stays bound in the presence of the test substance.
D(2) dopamine receptor (Rattus norvegicus), sequence (P61169 whole entry): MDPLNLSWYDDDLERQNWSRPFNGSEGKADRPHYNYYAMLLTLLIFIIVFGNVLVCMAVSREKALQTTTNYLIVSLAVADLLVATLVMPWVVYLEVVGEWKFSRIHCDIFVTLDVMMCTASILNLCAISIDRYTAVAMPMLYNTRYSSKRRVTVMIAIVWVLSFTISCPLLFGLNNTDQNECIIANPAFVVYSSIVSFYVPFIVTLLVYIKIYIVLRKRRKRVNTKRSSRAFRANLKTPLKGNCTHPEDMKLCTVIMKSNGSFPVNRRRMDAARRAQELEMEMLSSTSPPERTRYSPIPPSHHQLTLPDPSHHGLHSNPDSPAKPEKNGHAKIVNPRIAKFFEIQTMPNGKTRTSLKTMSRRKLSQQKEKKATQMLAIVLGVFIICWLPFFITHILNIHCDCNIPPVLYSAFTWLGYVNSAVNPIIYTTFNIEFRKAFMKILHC
In the next test the target is D(2) dopamine receptor (Rattus norvegicus, UniProt P61169). Kind of test: Ability to displace [3H]spiroperidol, from dopamine receptor D2 specific binding sites of rat striatal membranes. Further details: species or system Striatum, Membrane.
D(2) dopamine receptor, sequence (P61169 whole entry): as above

The structures appear in SMILES notation. The source made the active and inactive calls. The rule behind the calls is not given here.

Regarding `CCCN1CCOC(c2cccc(Cl)c2)C1` (stereo not given), the IC50 (commonly the concentration that gives 50% inhibition) in test [1] came out at 5 µM. Further, the outcome in test [2] was inactive. Consider `CCCN1CCOC(c2cccc(O)c2)C1` (stereo not given), for which the result in test [2] was inactive.

As to `CCCN1CCOC(c2cccc([N+](=O)[O-])c2)C1` (stereo not given), in test [2], the outcome was inactive. For the molecule `CCCN1CCOC(c2ccsc2)C1` (stereo not given), in test [2], the result was inactive. For `CCCN1CCOC(c2ccccc2Cl)C1` (stereo not given), in test [1], the IC50 came to 3 µM. Also, the result in test [2] was inactive. `CCCN1CCOC(c2ccccc2OC)C1` (stereo not given) registered an IC50 in test [1] of 1 µM. For the same molecule, the outcome in test [2] was inactive.

With `CCCN1CCOC(c2ccccc2O)C1` (stereo not given), the result in test [2] was inactive. `CCCN1CCCC(c2ccccc2O)C1` (stereo not given) showed an IC50 on D(2) dopamine receptor of 7 µM.

For the molecule `CCCN1CCOC(c2cccs2)C1` (stereo not given), the outcome in test [2] was inactive.

On to `CCCN1CCOC(c2cccc(OC)c2)C1` (stereo not given), for which the IC50 in test [1] turned out to be 1 µM. Besides, in test [2], the result was inactive.

In turn, `CCCN1CCCC(c2ccccc2OC)C1` (stereo not given) yielded an IC50 at D(2) dopamine receptor of 8 µM.
